Laboratory results from patent publication US10597388B2, “Pyridazinone herbicides” (FMC CORPORATION, priority 2014, dated 2020).
Like-named read-outs stand apart in the source and are kept apart here.

Legend:
Assay type in all cases: in vivo
[1] = test system: foxtail, giant (giant foxtail, Setaria faberii); assay: Test A greenhouse herbicide test, pre- and postemergence; settings: Setaria faberi, 240 h; for pest or weed control at 125 g/ha: 125 g ai/ha; for pest or weed control at 500 g/ha: 500 g ai/ha, 0 to 100 scale
How it was run: (§1)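 Seeds in loam–sand blend received a preemergence directed soil spray; plants at 2–10 cm, one- to two-leaf stage, received postemergence sprays. Compounds in a non-phytotoxic solvent with surfactant. After about 10 d in a greenhouse, injury rated visually versus untreated controls on a 0–100 scale (100 = complete control).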

[2] = test system: wheat (Triticum aestivum); assay: as above; settings: Triticum aestivum, post-emergence, 240 h, Postemergence; for plant injury at 125 g/ha: 125 g ai/ha, read-out: Plant response rating, Wheat; for plant injury at 500 g/ha: 500 g ai/ha, 0 to 100 scale, 0 is no effect, 100 is complete control, read-out: Wheat plant response rating
How it was run: as §1

[3] = test system: ryegrass, Italian (Italian ryegrass, Lolium multiflorum); assay: as above; settings: Lolium multiflorum, 240 h; for pest or weed control at 125 g/ha: 125 g ai/ha; for pest or weed control at 500 g/ha: 500 g ai/ha, 0 to 100 scale
How it was run: as §1

kochia (Kochia scoparia) = assay: as above; settings: Bassia scoparia, 240 h; for pest or weed control at 125 g/ha: 125 g ai/ha; for pest or weed control at 500 g/ha: 500 g ai/ha, 0 to 100 scale
How it was run: as §1

[4] = test system: pigweed (Amaranthus retroflexus); assay: as above; settings: Amaranthus retroflexus, 240 h; for pest or weed control at 125 g/ha: 125 g ai/ha; for pest or weed control at 500 g/ha: 500 g ai/ha, 0 to 100 scale
How it was run: as §1

corn (Zea mays) = assay: as above; settings: Zea mays, post-emergence, 240 h, Postemergence; for Corn plant response rating (crop injury, 0 = no effect, 100 = complete kill) at 125 g/ha: 125 g ai/ha; for plant injury at 500 g/ha: 500 g ai/ha, 0 to 100 scale, 0 is no effect, 100 is complete control, read-out: Corn plant response rating
How it was run: as §1

[5] = test system: barnyardgrass (Echinochloa crus-galli); assay: as above; settings: Echinochloa crus-galli, 240 h; for pest or weed control at 125 g/ha: 125 g ai/ha; for pest or weed control at 500 g/ha: 500 g ai/ha, 0 to 100 scale
How it was run: as §1

[6] = test system: ragweed (common ragweed, Ambrosia elatior); assay: as above; settings: Ambrosia artemisiifolia, 240 h; for pest or weed control at 125 g/ha: 125 g ai/ha; for pest or weed control at 500 g/ha: 500 g ai/ha, 0 to 100 scale
How it was run: as §1

[7] = test system: galium (catchweed bedstraw, Galium aparine); assay: Test A greenhouse herbicide test, postemergence; settings: Galium, post-emergence, 240 h; for pest or weed control at 125 g/ha: 125 g ai/ha, read-out: Plant response rating, Galium; for pest or weed control at 500 g/ha: 500 g ai/ha, 0 to 100 scale, 0 is no effect, 100 is complete control, read-out: Galium plant response rating
How it was run: (§2)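 Pot-grown plants (loam soil/sand blend), 2–10 cm tall at the one- to two-leaf stage, received postemergence sprays of formulated test chemical. After about 10 d in the greenhouse, injury was rated visually against untreated controls on a 0 (no effect) to 100 (complete control) scale.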

[8] = test system: blackgrass (Alopecurus myosuroides); assay: Test A greenhouse herbicide test, postemergence; settings: Alopecurus myosuroides, post-emergence, 240 h; for pest or weed control at 125 g/ha: 125 g ai/ha, read-out: Plant response rating, Blackgrass; for pest or weed control at 500 g/ha: 500 g ai/ha, 0 to 100 scale, 0 is no effect, 100 is complete control, read-out: Blackgrass plant response rating
How it was run: as §2

[9] = post-emergence, Postemergence, 0 is no effect, 100 is complete control, read-out: Foxtail, Giant plant response rating
[10] = pre-emergence, Preemergence, 0 to 100 scale where 0 is no effect and 100 is complete control, read-out: Foxtail, Giant plant response rating
[11] = pre-emergence, Preemergence, 0 no effect, 100 complete control, read-out: Plant response rating, Foxtail, Giant
[12] = visual rating after approx. 10 d, 0 to 100 scale (0 no effect, 100 complete control)
[13] = post-emergence, Postemergence, 0 is no effect, 100 is complete control, read-out: Ryegrass, Italian plant response rating
[14] = pre-emergence, Preemergence, 0 to 100 scale where 0 is no effect and 100 is complete control, read-out: Ryegrass, Italian plant response rating
[15] = pre-emergence, Preemergence, 0 no effect, 100 complete control, read-out: Plant response rating, Ryegrass, Italian
[16] = post-emergence, Postemergence, 0 is no effect, 100 is complete control, read-out: Kochia plant response rating
[17] = pre-emergence, Preemergence, 0 to 100 scale where 0 is no effect and 100 is complete control, read-out: Kochia plant response rating
[18] = pre-emergence, Preemergence, 0 no effect, 100 complete control, read-out: Plant response rating, Kochia
[19] = post-emergence, Postemergence, 0 is no effect, 100 is complete control, read-out: Pigweed plant response rating
[20] = pre-emergence, Preemergence, 0 to 100 scale where 0 is no effect and 100 is complete control, read-out: Pigweed plant response rating
[21] = pre-emergence, Preemergence, 0 no effect, 100 complete control, read-out: Plant response rating, Pigweed
[22] = post-emergence, Postemergence, 0 is no effect, 100 is complete control, read-out: Barnyardgrass plant response rating
[23] = pre-emergence, Preemergence, 0 to 100 scale where 0 is no effect and 100 is complete control, read-out: Barnyardgrass plant response rating
[24] = pre-emergence, Preemergence, 0 no effect, 100 complete control, read-out: Plant response rating, Barnyardgrass
[25] = post-emergence, Postemergence, 0 is no effect, 100 is complete control, read-out: Ragweed plant response rating
[26] = pre-emergence, Preemergence, 0 to 100 scale where 0 is no effect and 100 is complete control, read-out: Ragweed plant response rating
[27] = pre-emergence, Preemergence, 0 no effect, 100 complete control, read-out: Plant response rating, Ragweed
[28] = 0 to 100 scale where 0 is no effect and 100 is complete control

**Q.** Which results are given for Cc1cc(C)c2oc(C)c(-c3c(O)c(C)nn(C)c3=O)c2c1 [Compound 12, 5-hydroxy-2,6-dimethyl-4-(2,5,7-trimethyl-3-benzofuranyl)-3(2H)-pyridazinone]?
**A.** pest or weed control at 125 g/ha ([1]; post-emergence, Postemergence, visual rating after approx. 10 d, 0 to 100 scale (0 no effect, 100 complete control), read-out: Plant response rating, Foxtail, Giant): 10%; pest or weed control at 500 g/ha [1, 9]: 70%; pest or weed control at 125 g/ha [1, 10]: 20%; pest or weed control at 500 g/ha [1, 11]: 90%; plant injury at 125 g/ha [2, 12]: 0%; plant injury at 500 g/ha [2]: 0%; pest or weed control at 125 g/ha ([3]; post-emergence, Postemergence, visual rating after approx. 10 d, 0 to 100 scale (0 no effect, 100 complete control), read-out: Plant response rating, Ryegrass, Italian): 60%; pest or weed control at 500 g/ha [3, 13]: 70%; pest or weed control at 125 g/ha [3, 14]: 20%; pest or weed control at 500 g/ha [3, 15]: 50%; pest or weed control at 125 g/ha (kochia (Kochia scoparia); post-emergence, Postemergence, visual rating after approx. 10 d, 0 to 100 scale (0 no effect, 100 complete control), read-out: Plant response rating, Kochia): 0%; pest or weed control at 500 g/ha (kochia (Kochia scoparia); [16]): 60%; pest or weed control at 125 g/ha (kochia (Kochia scoparia); [17]): 0%; pest or weed control at 500 g/ha (kochia (Kochia scoparia); [18]): 10%; pest or weed control at 125 g/ha ([4]; post-emergence, Postemergence, visual rating after approx. 10 d, 0 to 100 scale (0 no effect, 100 complete control), read-out: Plant response rating, Pigweed): 30%; pest or weed control at 500 g/ha [4, 19]: 50%; pest or weed control at 125 g/ha [4, 20]: 10%; pest or weed control at 500 g/ha [4, 21]: 60%; Corn plant response rating (crop injury, 0 = no effect, 100 = complete kill) at 125 g/ha (corn (Zea mays); [12]): 0%; plant injury at 500 g/ha (corn (Zea mays)): 0%; pest or weed control at 125 g/ha ([5]; post-emergence, Postemergence, visual rating after approx. 10 d, 0 to 100 scale (0 no effect, 100 complete control), read-out: Plant response rating, Barnyardgrass): 0%; pest or weed control at 500 g/ha [5, 22]: 40%; pest or weed control at 125 g/ha [5, 23]: 20%; pest or weed control at 500 g/ha [5, 24]: 80%; pest or weed control at 125 g/ha ([6]; post-emergence, Postemergence, visual rating after approx. 10 d, 0 to 100 scale (0 no effect, 100 complete control), read-out: Plant response rating, Ragweed): 10%; pest or weed control at 500 g/ha [6, 25]: 70%; pest or weed control at 125 g/ha [6, 26]: 0%; pest or weed control at 500 g/ha [6, 27]: 30%; pest or weed control at 125 g/ha [7, 12]: 60%; pest or weed control at 500 g/ha [7]: 90%; pest or weed control at 125 g/ha [8, 12]: 20%; pest or weed control at 500 g/ha [8]: 50%

**Q.** What does the source list for COc1nn(C)c(=O)c(-c2c(C)c(C)cc3ccccc23)c1O [Compound 46, 4-(2,3-dimethyl-1-naphthalenyl)-5-hydroxy-6-methoxy-2-methyl-3(2H)-pyridazinone]?
**A.** pest or weed control at 125 g/ha ([1]; post-emergence, Postemergence, 0 to 100 scale where 0 is no effect and 100 is complete control, read-out: Plant response rating, Foxtail, Giant): 50%; pest or weed control at 500 g/ha [1, 9]: 80%; pest or weed control at 125 g/ha [1, 10]: 50%; pest or weed control at 500 g/ha [1, 11]: 90%; plant injury at 125 g/ha [2, 28]: 0%; plant injury at 500 g/ha [2]: 20%; pest or weed control at 125 g/ha ([3]; post-emergence, Postemergence, 0 to 100 scale where 0 is no effect and 100 is complete control, read-out: Plant response rating, Ryegrass, Italian): 30%; pest or weed control at 500 g/ha [3, 13]: 80%; pest or weed control at 125 g/ha [3, 14]: 30%; pest or weed control at 500 g/ha [3, 15]: 50%; pest or weed control at 125 g/ha (kochia (Kochia scoparia); post-emergence, Postemergence, 0 to 100 scale where 0 is no effect and 100 is complete control, read-out: Plant response rating, Kochia): 30%; pest or weed control at 500 g/ha (kochia (Kochia scoparia); [16]): 40%; pest or weed control at 125 g/ha (kochia (Kochia scoparia); [17]): 30%; pest or weed control at 500 g/ha (kochia (Kochia scoparia); [18]): 30%; pest or weed control at 125 g/ha ([4]; post-emergence, Postemergence, 0 to 100 scale where 0 is no effect and 100 is complete control, read-out: Plant response rating, Pigweed): 70%; pest or weed control at 500 g/ha [4, 19]: 90%; pest or weed control at 125 g/ha [4, 20]: 30%; pest or weed control at 500 g/ha [4, 21]: 100%; Corn plant response rating (crop injury, 0 = no effect, 100 = complete kill) at 125 g/ha (corn (Zea mays); [28]): 0%; plant injury at 500 g/ha (corn (Zea mays)): 0%; pest or weed control at 125 g/ha ([5]; post-emergence, Postemergence, 0 to 100 scale where 0 is no effect and 100 is complete control, read-out: Plant response rating, Barnyardgrass): 20%; pest or weed control at 500 g/ha [5, 22]: 80%; pest or weed control at 125 g/ha [5, 23]: 20%; pest or weed control at 500 g/ha [5, 24]: 60%; pest or weed control at 125 g/ha ([6]; post-emergence, Postemergence, 0 to 100 scale where 0 is no effect and 100 is complete control, read-out: Plant response rating, Ragweed): 80%; pest or weed control at 500 g/ha [6, 25]: 90%; pest or weed control at 125 g/ha [6, 26]: 50%; pest or weed control at 500 g/ha [6, 27]: 80%; pest or weed control at 125 g/ha [7, 28]: 70%; pest or weed control at 500 g/ha [7]: 90%; pest or weed control at 125 g/ha [8, 28]: 20%; pest or weed control at 500 g/ha [8]: 70%
